Laboratory results published in paper PMC6270420, “Antibacterial Activity of Salicylanilide 4-(Trifluoromethyl)benzoates” (Molecules, 2013).
≈ marks a conversion by molar mass, not a printed value. Read-outs that look alike come from different tables or passages of the source.

Legend:
[1] = system: Mycobacterium tuberculosis, M. avium and M. kansasii; experiment: Antimycobacterial MIC, summary over all mycobacterial strains; type: cell-based; settings: at 1,000 µmol/L; mycobacteria other than M. kansasii
[2] = system: Mycobacterium tuberculosis 331/88 (H37Rv); experiment: Antimycobacterial MIC micromethod, Šula's medium; type: cell-based; settings: read-out: MIC Mtb. 331/88
[3] = system: M. kansasii 6509/96 (clinically isolated strain); experiment: Antimycobacterial MIC micromethod; type: cell-based; settings: Mycobacterium kansasii, read-out: MIC M. kansasii 6509/96
[4] = system: Mycobacterium kansasii 235/80; experiment: Antimycobacterial MIC micromethod; type: cell-based; settings: read-out: MIC M. kansasii 235/80
M. kansasii = experiment: Antimycobacterial MIC, summary for M. kansasii; type: cell-based; settings: Mycobacterium kansasii, both strains; read-out: MICs towards M. kansasii
[5] = system: eight Gram-positive and Gram-negative strains; experiment: Antibacterial microdilution, summary over eight strains; type: cell-based; settings: read-out: MIC, antibacterial action
Procedure: The in vitro antibacterial activity was assayed against eight Gram-positive and Gram-negative strains: Staphylococcus aureus CCM 4516/08, methicillin-resistant Staphylococcus aureus H 5996/08 (MRSA), Staphylococcus epidermidis H 6966/08, Enterococcus sp. J 14365/08; Escherichia coli CCM 4517, Klebsiella pneumoniae D 11750/08, ESBL-positive Klebsiella pneumoniae J 14368/08, and Pseudomonas aeruginosa CCM 1961.
The microdilution broth method modified according to standard M07-A07 in Mueller-Hinton broth (HiMedia Laboratories, Mumbai, India) adjusted to pH 7.4 (±0.2) was used. The tested compounds were dissolved in DMSO to the final concentrations ranging from […]. Benzylpenicillin (penicillin G) was used as a comparative drug. Bacterial inoculum in sterile water was prepared to match 0.5 McFarland scale ([…]). The minimum inhibitory concentrations were assayed as 90% (IC90) or higher reduction of growth when compared to the control. The determination of results was performed visually and spectrophotometrically (at 540 nm). The values of MICs were determined after 24 and 48 h of incubation in the darkness at 35 °C (±0.1) in a humid atmosphere.

[6] = system: Mycobacterium avium 330/88; experiment: Antimycobacterial MIC micromethod; type: cell-based
HepG2 cells = experiment: Cytotoxicity evaluation (CellTiter 96 MTS); type: cell-based, human; settings: Homo sapiens, HepG2; 24 h, cytotoxicity; read-out: IC50 HepG2
Procedure: Seven esters and their parent salicylanilides with the most robust antimicrobial activity were tested for cytotoxicity in the human hepatocellular liver carcinoma cell line HepG2 (passages 21–24; ECACC, Salisbury, UK) using a standard colorimetric method measuring a tetrazolium salt reduction (CellTiter(R) 96 AQueous One Solution Assay, Promega G3580, Madison, WI, USA).
The cells were routinely cultured in Minimum Essentials Eagle Medium (Sigma-Aldrich, Darmstadt, Germany) supplemented with 10% foetal bovine serum (PAA; Biotech, Prague, Czech Republic), 1% of L-glutamine solution (Sigma-Aldrich), and non-essential amino acids solution (Sigma-Aldrich) in a humidified atmosphere containing 5% CO2 at 37 °C. For subculturing, the cells were harvested after trypsin/EDTA (Sigma-Aldrich) treatment at 37 °C. The cells treated with the tested substances were used as experimental groups. Untreated HepG2 cells were used as control groups.
The cells were seeded in density 1 × 10^4 cells per well in a 96-well plate with microscopic control. Next day, the cells were treated with each of the tested substances. […] The most of the tested compounds were prepared in incubation concentrations of 0.01–20 µM in triplicates. 4-(Trifluoromethyl)benzoic acid was applied in the concentrations of 10–4,000 µM in triplicates. The following types of controls were included: determination of 100% viability and 0% viability (the cells treated by 10% DMSO), no cell control and vehiculum controls. These checking samples were prepared in triplicates.
The treated cells were incubated together with controls at 37 °C for 24 h in 5% CO2 atmosphere. After this time reagent from the kit CellTiter 96 AQueous One Solution Cell Proliferation Assay was added. The CellTiter 96 assay is based on the reduction of tetrazolium salt MTS [3-(4,5-dimethylthiazol-2-yl)-5-(3-carboxymethoxyphenyl)-2-(4-sulfophenyl)-2H-tetrazolium] to water-soluble formazan dye by metabolically active cells. The reduction of the reagent is attributed to availability of NADH or NADPH. The decline in levels of these metabolically important compounds in the cell causes that the production of formazan is reduced. The tested plate was incubated for 2 h at 37 °C and 5% CO2 and after this time, the absorbance was recorded at 490 nm using a 96-well plate reader (TECAN, Infinite M200, Grödig, Austria).
The results were expressed as inhibitory concentration which is necessary to inhibit cell viability to 50% from the maximal (control) viability (IC50). A standard toxicological parameter IC50 was calculated in each of the tested substances using GraphPad Prism software (version 5.02; GraphPad Software Inc., San Diego, CA, USA).

## O=C(O)c1ccc(C(F)(F)F)cc1 [CF3-BA, 4-(trifluoromethyl)benzoic acid, reference compound]
[1]
  susceptibility of other mycobacteria: completely insusceptible
[2]; 336 h, 14 d
  MIC: > 1000 µM
[2]; 504 h, 21 d
  MIC: > 1000 µM
[3]; 168 h
  MIC: 250 µM (≈ 47.5 µg/mL)
[3]; 336 h, 14 d
  MIC: 1000 µM (≈ 190 µg/mL)
[3]; 504 h, 21 d
  MIC: 1000 µM (≈ 190 µg/mL)
[4]; 235/80, 168 h, 7 d
  MIC: 1000 µM (≈ 190 µg/mL)
[4]; 235/80, 336 h, 14 d
  MIC: > 1000 µM
[4]; 235/80, 504 h, 21 d
  MIC: > 1000 µM
M. kansasii
  MIC: ≥ 250 µM
[5]
  MIC: > 500 µM
[6]; 330/88, 336 h, 14 d
  MIC: > 1000 µM
[6]; 330/88, 504 h, 21 d
  MIC: > 1000 µM
HepG2 cells
  IC50: 564 µM
